Measurements reported in patent US4200575A, “7[(2-Thiazolyl)-2-(oxoimino)acetamido]cephalosporin derivatives” (Takeda Chemical Industries, Ltd., priority 1977, dated 1980).

Tests used:
Assay in all cases: Minimal inhibitory concentration (M.I.C.), agar dilution method
Conditions in all cases: TSA, inoculum 10^7 /ml
S. aureus 209P = assay type: cell-based, Staphylococcus aureus
From the text: (§1) (a) Determination of minimal inhibitory concentrations (Tables 1 to 8):
(§2) Procedure: agar dilution method

S. aureus 1840 = assay type: cell-based, Staphylococcus aureus
From the text: as §1, §2

P. vulgaris GN 4413 = assay type: cell-based, Proteus vulgaris
From the text: as §1, §2

P. vulgaris IFO 3988 = assay type: cell-based, Proteus vulgaris
From the text: as §1, §2

E. coli 0-111 = assay type: cell-based, Escherichia coli
From the text: The minimal inhibitory concentrations (M.I.C.) of some representative cephalosporin derivatives of this invention as produced by the procedures described in those examples and the minimal inhibitory concentrations of cephalothin [sodium 7-(2-thienylacetamido)-3-acetoxymethyl-3-cephem-4-carboxylate], cephaloridine [7-(2-thienylacetamido)-3-(1-pyridyl)methyl-3-cephem-4-carboxylic acid betaine] and cefazolin [sodium 7-(1H-tetrazol-1-yl)acetamido-3-(2-methyl-1,3,4-thiadiazol-5-yl)thiomethyl-3-cephem-4-carboxylate], which are among the clinically established and commercially available cephalosporins (as described, for example, in the New England Journal of Medicine 294, 24, 1976 and Journal of Pharmaceutical Science 64, 1899, 1975), both against various bacteria, as well as the therapeutic effects of some respresentative cephalosporin derivatives of this invention and of cephaloridine in infected mice, are shown in tables.
as §1, §2

P. morganii IFO 3168 = assay type: cell-based, Proteus morganii
From the text: as §1, §2

P. rettgeri GN4733 = assay type: cell-based, Proteus rettgeri
From the text: as §1, §2

P. rettgeri TN 338 = assay type: cell-based, Proteus rettgeri
From the text: as §1, §2

C. freundii GN 99 = assay type: cell-based, Citrobacter freundii
From the text: as §1, §2

C. freundii GN 1706 = assay type: cell-based, Citrobacter freundii
From the text: as §1, §2

E. cloacae TN 1282 = assay type: cell-based, Enterobacter cloacae
From the text: as §1, §2

E. coli NIHJ JC-2 = assay type: cell-based, Escherichia coli
From the text: as §1, §2

E. coli T-7 = assay type: cell-based, Escherichia coli
From the text: as §1, §2

S. marcescens IFO 12648 = assay type: cell-based, Serratia marcescens
From the text: as §1, §2

S. marcescens TN 24 = assay type: cell-based, Serratia marcescens
From the text: as §1, §2

P. mirabilis GN 4359 = assay type: cell-based, Proteus mirabilis
From the text: as §1, §2

K. pneumoniae GN 3835 = assay type: cell-based, Klebsiella pneumoniae
From the text: as §1, §2

K. pneumoniae DT = assay type: cell-based, Klebsiella pneumoniae
From the text: as §1, §2

Structure (SMILES): CCCNC(=O)O/N=C(\C(=O)NC1C(=O)N2C(C(=O)O)=C(C)CSC12)c1csc(=N)[nH]1 (stereo not drawn) [Example II - 15]
- minimal inhibitory concentration (M.I.C.) (S. aureus 209P): 12.5
- minimal inhibitory concentration (M.I.C.) (S. aureus 1840): 12.5
- minimal inhibitory concentration (M.I.C.) (P. vulgaris GN 4413): 50
- minimal inhibitory concentration (M.I.C.) (P. vulgaris IFO 3988): 12.5
- minimal inhibitory concentration (M.I.C.) (E. coli 0-111): 3.13
- minimal inhibitory concentration (M.I.C.) (P. morganii IFO 3168): 50
- minimal inhibitory concentration (M.I.C.) (P. rettgeri GN4733): 0.39
- minimal inhibitory concentration (M.I.C.) (P. rettgeri TN 338): 0.1
- minimal inhibitory concentration (M.I.C.) (C. freundii GN 99): 12.5
- minimal inhibitory concentration (M.I.C.) (C. freundii GN 1706): 12.5
- minimal inhibitory concentration (M.I.C.) (E. cloacae TN 1282): > 100
- minimal inhibitory concentration (M.I.C.) (E. coli NIHJ JC-2): 6.25
- minimal inhibitory concentration (M.I.C.) (E. coli T-7): 25
- minimal inhibitory concentration (M.I.C.) (S. marcescens IFO 12648): > 100
- minimal inhibitory concentration (M.I.C.) (S. marcescens TN 24): > 100
- minimal inhibitory concentration (M.I.C.) (P. mirabilis GN 4359): 3.13
- minimal inhibitory concentration (M.I.C.) (K. pneumoniae GN 3835): 6.25
- minimal inhibitory concentration (M.I.C.) (K. pneumoniae DT): 3.13

Structure (SMILES): CNC(=O)O/N=C(\C(=O)NC1C(=O)N2C(C(=O)O)=C(CSc3nc(C)ns3)CSC12)c1csc(=N)[nH]1 (stereo not drawn) [Example IV - 8]
- minimal inhibitory concentration (M.I.C.) (S. aureus 209P): 0.78
- minimal inhibitory concentration (M.I.C.) (S. aureus 1840): 1.56
- minimal inhibitory concentration (M.I.C.) (P. vulgaris GN 4413): 6.25
- minimal inhibitory concentration (M.I.C.) (P. vulgaris IFO 3988): 0.39
- minimal inhibitory concentration (M.I.C.) (E. coli 0-111): 0.39
- minimal inhibitory concentration (M.I.C.) (P. morganii IFO 3168): 3.13
- minimal inhibitory concentration (M.I.C.) (P. rettgeri GN4733): 0.78
- minimal inhibitory concentration (M.I.C.) (P. rettgeri TN 338): ≤ 0.2
- minimal inhibitory concentration (M.I.C.) (C. freundii GN 99): 0.78
- minimal inhibitory concentration (M.I.C.) (C. freundii GN 1706): 3.13
- minimal inhibitory concentration (M.I.C.) (E. cloacae TN 1282): 6.25
- minimal inhibitory concentration (M.I.C.) (E. coli NIHJ JC-2): 1.56
- minimal inhibitory concentration (M.I.C.) (E. coli T-7): 6.25
- minimal inhibitory concentration (M.I.C.) (S. marcescens IFO 12648): 6.25
- minimal inhibitory concentration (M.I.C.) (S. marcescens TN 24): 6.25
- minimal inhibitory concentration (M.I.C.) (P. mirabilis GN 4359): 0.78
- minimal inhibitory concentration (M.I.C.) (K. pneumoniae GN 3835): 3.13
- minimal inhibitory concentration (M.I.C.) (K. pneumoniae DT): 0.39

Structure (SMILES): CNC(=O)O/N=C(\C(=O)NC1C(=O)N2C(C(=O)O)=C(CSc3cnn[nH]3)CSC12)c1csc(=N)[nH]1 (stereo not drawn) [Example IV - 9]
- minimal inhibitory concentration (M.I.C.) (S. aureus 209P): 3.13
- minimal inhibitory concentration (M.I.C.) (S. aureus 1840): 3.13
- minimal inhibitory concentration (M.I.C.) (P. vulgaris GN 4413): 25
- minimal inhibitory concentration (M.I.C.) (P. vulgaris IFO 3988): 0.39
- minimal inhibitory concentration (M.I.C.) (E. coli 0-111): ≤ 0.2
- minimal inhibitory concentration (M.I.C.) (P. morganii IFO 3168): 0.78
- minimal inhibitory concentration (M.I.C.) (P. rettgeri GN4733): 1.56
- minimal inhibitory concentration (M.I.C.) (P. rettgeri TN 338): ≤ 0.2
- minimal inhibitory concentration (M.I.C.) (C. freundii GN 99): 0.78
- minimal inhibitory concentration (M.I.C.) (C. freundii GN 1706): 1.56
- minimal inhibitory concentration (M.I.C.) (E. cloacae TN 1282): 6.25
- minimal inhibitory concentration (M.I.C.) (E. coli NIHJ JC-2): 0.78
- minimal inhibitory concentration (M.I.C.) (E. coli T-7): 3.13
- minimal inhibitory concentration (M.I.C.) (S. marcescens IFO 12648): 6.25
- minimal inhibitory concentration (M.I.C.) (S. marcescens TN 24): 6.25
- minimal inhibitory concentration (M.I.C.) (P. mirabilis GN 4359): 0.39
- minimal inhibitory concentration (M.I.C.) (K. pneumoniae GN 3835): 0.78
- minimal inhibitory concentration (M.I.C.) (K. pneumoniae DT): ≤ 0.2

Structure (SMILES): CC(=O)OCC1=C(C(=O)O)N2C(=O)C(NC(=O)/C(=N\OC(=O)NC3CCCCC3)c3csc(=N)[nH]3)C2SC1 (stereo not drawn) [Example II - 24]
- minimal inhibitory concentration (M.I.C.) (S. aureus 209P): 0.78
- minimal inhibitory concentration (M.I.C.) (S. aureus 1840): 1.56
- minimal inhibitory concentration (M.I.C.) (P. vulgaris GN 4413): 25
- minimal inhibitory concentration (M.I.C.) (P. vulgaris IFO 3988): 0.1
- minimal inhibitory concentration (M.I.C.) (E. coli 0-111): 0.024
- minimal inhibitory concentration (M.I.C.) (P. morganii IFO 3168): 0.39
- minimal inhibitory concentration (M.I.C.) (P. rettgeri GN4733): 0.05
- minimal inhibitory concentration (M.I.C.) (P. rettgeri TN 338): ≤ 0.012
- minimal inhibitory concentration (M.I.C.) (C. freundii GN 99): 0.39
- minimal inhibitory concentration (M.I.C.) (C. freundii GN 1706): 0.78
- minimal inhibitory concentration (M.I.C.) (E. cloacae TN 1282): 3.13
- minimal inhibitory concentration (M.I.C.) (E. coli NIHJ JC-2): 0.1
- minimal inhibitory concentration (M.I.C.) (E. coli T-7): 1.56
- minimal inhibitory concentration (M.I.C.) (S. marcescens IFO 12648): 6.25
- minimal inhibitory concentration (M.I.C.) (S. marcescens TN 24): 12.5
- minimal inhibitory concentration (M.I.C.) (P. mirabilis GN 4359): 0.1
- minimal inhibitory concentration (M.I.C.) (K. pneumoniae GN 3835): 0.39
- minimal inhibitory concentration (M.I.C.) (K. pneumoniae DT): 0.05

Structure (SMILES): CCNC(=O)O/N=C(\C(=O)NC1C(=O)N2C(C(=O)O)=C(CSc3nnnn3C)CSC12)c1csc(=N)[nH]1 (stereo not drawn) [Example II - 9]
- minimal inhibitory concentration (M.I.C.) (S. aureus 209P): 1.56
- minimal inhibitory concentration (M.I.C.) (S. aureus 1840): 3.13
- minimal inhibitory concentration (M.I.C.) (P. vulgaris GN 4413): 25
- minimal inhibitory concentration (M.I.C.) (P. vulgaris IFO 3988): 0.2
- minimal inhibitory concentration (M.I.C.) (E. coli 0-111): 0.05
- minimal inhibitory concentration (M.I.C.) (P. morganii IFO 3168): 1.56
- minimal inhibitory concentration (M.I.C.) (P. rettgeri GN4733): 0.2
- minimal inhibitory concentration (M.I.C.) (P. rettgeri TN 338): ≤ 0.012
- minimal inhibitory concentration (M.I.C.) (C. freundii GN 99): 0.2
- minimal inhibitory concentration (M.I.C.) (C. freundii GN 1706): 0.78
- minimal inhibitory concentration (M.I.C.) (E. cloacae TN 1282): 6.25
- minimal inhibitory concentration (M.I.C.) (E. coli NIHJ JC-2): 0.39
- minimal inhibitory concentration (M.I.C.) (E. coli T-7): 3.13
- minimal inhibitory concentration (M.I.C.) (S. marcescens IFO 12648): 3.13
- minimal inhibitory concentration (M.I.C.) (S. marcescens TN 24): 3.13
- minimal inhibitory concentration (M.I.C.) (P. mirabilis GN 4359): 0.39
- minimal inhibitory concentration (M.I.C.) (K. pneumoniae GN 3835): 0.78
- minimal inhibitory concentration (M.I.C.) (K. pneumoniae DT): 0.1

Structure (SMILES): CCCCNC(=O)O/N=C(\C(=O)NC1C(=O)N2C(C(=O)O)=C(CSc3nnnn3C)CSC12)c1csc(=N)[nH]1 (stereo not drawn) [Example II - 22]
- minimal inhibitory concentration (M.I.C.) (S. aureus 209P): 0.78
- minimal inhibitory concentration (M.I.C.) (S. aureus 1840): 3.13
- minimal inhibitory concentration (M.I.C.) (P. vulgaris GN 4413): 12.5
- minimal inhibitory concentration (M.I.C.) (P. vulgaris IFO 3988): 0.1
- minimal inhibitory concentration (M.I.C.) (E. coli 0-111): 0.024
- minimal inhibitory concentration (M.I.C.) (P. morganii IFO 3168): 0.78
- minimal inhibitory concentration (M.I.C.) (P. rettgeri GN4733): 0.1
- minimal inhibitory concentration (M.I.C.) (P. rettgeri TN 338): ≤ 0.012
- minimal inhibitory concentration (M.I.C.) (C. freundii GN 99): 0.2
- minimal inhibitory concentration (M.I.C.) (C. freundii GN 1706): 0.78
- minimal inhibitory concentration (M.I.C.) (E. cloacae TN 1282): 12.5
- minimal inhibitory concentration (M.I.C.) (E. coli NIHJ JC-2): 0.39
- minimal inhibitory concentration (M.I.C.) (E. coli T-7): 6.25
- minimal inhibitory concentration (M.I.C.) (S. marcescens IFO 12648): 6.25
- minimal inhibitory concentration (M.I.C.) (S. marcescens TN 24): 5.13
- minimal inhibitory concentration (M.I.C.) (P. mirabilis GN 4359): 0.39
- minimal inhibitory concentration (M.I.C.) (K. pneumoniae GN 3835): 0.78
- minimal inhibitory concentration (M.I.C.) (K. pneumoniae DT): 0.1

Structure (SMILES): CNC(=O)O/N=C(\C(=O)NC1C(=O)N2C(C(=O)O)=C(C)CSC12)c1csc(=N)[nH]1 (stereo not drawn) [Example II - 6]
- minimal inhibitory concentration (M.I.C.) (S. aureus 209P): 50
- minimal inhibitory concentration (M.I.C.) (S. aureus 1840): 50
- minimal inhibitory concentration (M.I.C.) (P. vulgaris GN 4413): 12.5
- minimal inhibitory concentration (M.I.C.) (P. vulgaris IFO 3988): 1.56
- minimal inhibitory concentration (M.I.C.) (E. coli 0-111): 0.78
- minimal inhibitory concentration (M.I.C.) (P. morganii IFO 3168): 12.5
- minimal inhibitory concentration (M.I.C.) (P. rettgeri GN4733): 0.2
- minimal inhibitory concentration (M.I.C.) (P. rettgeri TN 338): 0.024
- minimal inhibitory concentration (M.I.C.) (C. freundii GN 99): 6.25
- minimal inhibitory concentration (M.I.C.) (C. freundii GN 1706): 12.5
- minimal inhibitory concentration (M.I.C.) (E. cloacae TN 1282): 50
- minimal inhibitory concentration (M.I.C.) (E. coli NIHJ JC-2): 3.13
- minimal inhibitory concentration (M.I.C.) (E. coli T-7): 6.25
- minimal inhibitory concentration (M.I.C.) (S. marcescens IFO 12648): 50
- minimal inhibitory concentration (M.I.C.) (S. marcescens TN 24): 100
- minimal inhibitory concentration (M.I.C.) (P. mirabilis GN 4359): 0.78
- minimal inhibitory concentration (M.I.C.) (K. pneumoniae GN 3835): 1.56
- minimal inhibitory concentration (M.I.C.) (K. pneumoniae DT): 0.78
